# Tests used:
# Format in all cases: in vivo
# [1] = test system: ducksalad (Heteranthera limosa); test: Test B flooded paddy test; details: for Plant response rating, Ducksalad: Flood (flooded paddy test), 13 to 15 days; for Ducksalad plant response rating: Flood, 31 g ai/ha, scale 0 to 100 (0 no effect, 100 complete control); for Plant response rating, Flood, Ducksalad: 250 g ai/ha, flooded paddy test, visual rating on 0 to 100 scale (0 no effect, 100 complete control) after 13 to 15 days
# Outline: (§1)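 Visual scores run from 0 (no effect) to 100 (complete control), assigned by comparison with controls 13 to 15 days after treatment. Test compounds went straight into water standing 3 cm above the soil, around plants at the 2-leaf stage kept in a greenhouse.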
# [2] = test system: barnyardgrass (Echinochloa crus-galli); test: Test B flooded paddy test; details: for Plant response rating, Barnyardgrass: Flood (flooded paddy test), 13 to 15 days; for Barnyardgrass plant response rating: Flood, 31 g ai/ha, scale 0 to 100 (0 no effect, 100 complete control); for Plant response rating, Flood, Barnyardgrass: 250 g ai/ha, flooded paddy test, visual rating on 0 to 100 scale (0 no effect, 100 complete control) after 13 to 15 days
# Outline: as §1
# [3] = test system: umbrella sedge (Cyperus difformis); test: Test B flooded paddy test; details: for Plant response rating, Sedge, Umbrella: Flood (flooded paddy test), 13 to 15 days; for Sedge, Umbrella plant response rating: Flood, 31 g ai/ha, scale 0 to 100 (0 no effect, 100 complete control); for Plant response rating, Flood, Sedge, Umbrella: 250 g ai/ha, flooded paddy test, visual rating on 0 to 100 scale (0 no effect, 100 complete control) after 13 to 15 days
# Outline: as §1
# [4] = test system: rice (Oryza sativa); test: Test B flooded paddy test; details: for Plant response rating, Rice: Flood (flooded paddy test), 13 to 15 days; for Rice plant response rating: Flood, 31 g ai/ha, scale 0 to 100 (0 no effect, 100 complete control); for Plant response rating, Flood, Rice: 250 g ai/ha, flooded paddy test, visual rating on 0 to 100 scale (0 no effect, 100 complete control) after 13 to 15 days
# Outline: as §1
# [5] = test system: barnyardgrass (Echinochloa crus-galli); test: Test A pre-/postemergence plant response; details: for Barnyardgrass plant response rating: visual injury, 0 to 100 scale (0 no effect, 100 complete control), approx. ten days
# Outline: (§2)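 Greenhouse pots of loam/sand received directed preemergence soil sprays or postemergence sprays (plants 2–10 cm, 1–2 leaf stage), compounds formulated in non-phytotoxic solvent with surfactant. Injury was rated visually versus untreated controls after about ten days on a 0 (no effect) to 100 (complete control) scale.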
# [6] = test system: velvetleaf (Abutilon theophrasti); test: Test A pre-/postemergence plant response; details: for Velvetleaf plant response rating: visual injury, 0 to 100 scale (0 no effect, 100 complete control), approx. ten days
# Outline: as §2
# [7] = test system: corn (Zea mays); test: Test A pre-/postemergence plant response; details: for Corn plant response rating: visual injury, 0 to 100 scale (0 no effect, 100 complete control), approx. ten days
# Outline: as §2
# [8] = test system: morningglory (Ipomoea spp.); test: Test A pre-/postemergence plant response; details: for Morningglory plant response rating: visual injury, 0 to 100 scale (0 no effect, 100 complete control), approx. ten days
# Outline: as §2
# [9] = test system: wheat (Triticum aestivum); test: Test A pre-/postemergence plant response; details: for Wheat plant response rating: visual injury, 0 to 100 scale (0 no effect, 100 complete control), approx. ten days
# Outline: as §2
# [10] = test system: giant foxtail (Setaria faberii); test: Test A pre-/postemergence plant response; details: for Foxtail, Giant plant response rating: visual injury, 0 to 100 scale (0 no effect, 100 complete control), approx. ten days
# Outline: as §2
# [11] = test system: large crabgrass (Digitaria sanguinalis); test: Test A pre-/postemergence plant response; details: for Crabgrass, Large plant response rating: visual injury, 0 to 100 scale (0 no effect, 100 complete control), approx. ten days
# Outline: as §2
# [12] = test system: pigweed (Amaranthus retroflexus); test: Test A pre-/postemergence plant response; details: for Pigweed plant response rating: visual injury, 0 to 100 scale (0 no effect, 100 complete control), approx. ten days
# Outline: as §2
# [13] = 125 g ai/ha, scale 0 to 100, 0 is no effect, 100 is complete control
# [14] = Postemergence, 125 g ai/ha, 0 to 100 scale where 0 is no effect and 100 is complete control
# [15] = Preemergence, 125 g ai/ha, 0 to 100 scale, 0 = no effect, 100 = complete control
# [16] = Preemergence, 500 g ai/ha, 0 to 100 scale, 0 = no effect, 100 = complete control
# [17] = 62 g ai/ha, scale of 0 to 100 where 0 is no effect and 100 is complete control
structure (smiles),measurement,setting,value
"O=C1CCCC(O)=C1C(=O)c1cnc(-c2ccccc2)n(C2CC[S+]([O-])CC2)c1=O (mixture of isomers) [Compound 168, 5-[(2-hydroxy-6-oxo-1-cyclohexen-1-yl)carbonyl]-2-phenyl-3-(cis/trans-tetrahydro-1-oxido-2H-thiopyran-4-yl)-4(3H)-pyrimidinone]","Plant response rating, Ducksalad",[1]; [13],30
same,Ducksalad plant response rating,[1],0
same,"Plant response rating, Barnyardgrass",[2]; [13],0
same,Barnyardgrass plant response rating,[2],0
same,"Plant response rating, Sedge, Umbrella",[3]; [13],20
same,"Sedge, Umbrella plant response rating",[3],0
same,"Plant response rating, Rice",[4]; [13],0
same,Rice plant response rating,[4],0
same,"Plant response rating, Barnyardgrass",[5]; [14],30
same,Barnyardgrass plant response rating,"[5]; Postemergence, 500 g ai/ha",100
same,"Plant response rating, Barnyardgrass",[5]; [15],0
same,"Plant response rating, Barnyardgrass",[5]; [16],20
same,"Plant response rating, Velvetleaf",[6]; [14],100
same,Velvetleaf plant response rating,"[6]; Postemergence, 500 g ai/ha",100
same,"Plant response rating, Velvetleaf",[6]; [15],0
same,"Plant response rating, Velvetleaf",[6]; [16],60
same,"Plant response rating, Corn",[7]; [14],20
same,Corn plant response rating,"[7]; Postemergence, 500 g ai/ha",30
same,"Plant response rating, Corn",[7]; [15],0
same,"Plant response rating, Corn",[7]; [16],0
same,"Plant response rating, Morningglory",[8]; [14],100
same,Morningglory plant response rating,"[8]; Postemergence, 500 g ai/ha",100
same,"Plant response rating, Morningglory",[8]; [15],0
same,"Plant response rating, Morningglory",[8]; [16],70
same,"Plant response rating, Wheat",[9]; [14],0
same,Wheat plant response rating,"[9]; Postemergence, 500 g ai/ha",50
same,"Plant response rating, Wheat",[9]; [15],0
same,"Plant response rating, Wheat",[9]; [16],0
same,"Plant response rating, Foxtail, Giant",[10]; [14],50
same,"Foxtail, Giant plant response rating","[10]; Postemergence, 500 g ai/ha",90
same,"Plant response rating, Foxtail, Giant",[10]; [15],10
same,"Plant response rating, Foxtail, Giant",[10]; [16],70
same,"Plant response rating, Crabgrass, Large",[11]; [14],50
same,"Crabgrass, Large plant response rating","[11]; Postemergence, 500 g ai/ha",90
same,"Plant response rating, Crabgrass, Large",[11]; [15],30
same,"Plant response rating, Crabgrass, Large",[11]; [16],80
same,"Plant response rating, Pigweed",[12]; [14],100
same,Pigweed plant response rating,"[12]; Postemergence, 500 g ai/ha",100
same,"Plant response rating, Pigweed",[12]; [15],10
same,"Plant response rating, Pigweed",[12]; [16],50
COc1ccc(-n2c(-c3cccc(F)c3)ncc(C(=O)C3=C(O)CCCC3=O)c2=O)cc1 [Compound 203],"Plant response rating, Flood, Ducksalad",[1],95
same,"Plant response rating, Ducksalad",[1]; [17],75
same,"Plant response rating, Ducksalad",[1]; [13],95
same,Ducksalad plant response rating,[1],40
same,"Plant response rating, Flood, Barnyardgrass",[2],20
same,"Plant response rating, Barnyardgrass",[2]; [17],0
same,"Plant response rating, Barnyardgrass",[2]; [13],0
same,Barnyardgrass plant response rating,[2],0
same,"Plant response rating, Flood, Sedge, Umbrella",[3],85
same,"Plant response rating, Sedge, Umbrella",[3]; [17],65
same,"Plant response rating, Sedge, Umbrella",[3]; [13],75
same,"Sedge, Umbrella plant response rating",[3],0
same,"Plant response rating, Flood, Rice",[4],0
same,"Plant response rating, Rice",[4]; [17],0
same,"Plant response rating, Rice",[4]; [13],0
same,Rice plant response rating,[4],0
same,"Plant response rating, Barnyardgrass",[5]; [14],80
same,Barnyardgrass plant response rating,"[5]; Postemergence, 500 g ai/ha",100
same,"Plant response rating, Barnyardgrass",[5]; [15],30
same,"Plant response rating, Barnyardgrass",[5]; [16],70
same,"Plant response rating, Velvetleaf",[6]; [14],90
same,Velvetleaf plant response rating,"[6]; Postemergence, 500 g ai/ha",100
same,"Plant response rating, Velvetleaf",[6]; [15],50
same,"Plant response rating, Velvetleaf",[6]; [16],80
same,"Plant response rating, Corn",[7]; [14],0
same,Corn plant response rating,"[7]; Postemergence, 500 g ai/ha",30
same,"Plant response rating, Corn",[7]; [15],0
same,"Plant response rating, Corn",[7]; [16],20
same,"Plant response rating, Morningglory",[8]; [14],100
same,Morningglory plant response rating,"[8]; Postemergence, 500 g ai/ha",100
same,"Plant response rating, Morningglory",[8]; [15],0
same,"Plant response rating, Morningglory",[8]; [16],70
same,"Plant response rating, Wheat",[9]; [14],0
same,Wheat plant response rating,"[9]; Postemergence, 500 g ai/ha",30
same,"Plant response rating, Wheat",[9]; [15],0
same,"Plant response rating, Wheat",[9]; [16],30
same,"Plant response rating, Foxtail, Giant",[10]; [14],30
same,"Foxtail, Giant plant response rating","[10]; Postemergence, 500 g ai/ha",80
same,"Plant response rating, Foxtail, Giant",[10]; [15],30
same,"Plant response rating, Foxtail, Giant",[10]; [16],90
same,"Plant response rating, Crabgrass, Large",[11]; [14],30
same,"Crabgrass, Large plant response rating","[11]; Postemergence, 500 g ai/ha",70
same,"Plant response rating, Crabgrass, Large",[11]; [15],20
same,"Plant response rating, Crabgrass, Large",[11]; [16],70
same,"Plant response rating, Pigweed",[12]; [14],100
same,Pigweed plant response rating,"[12]; Postemergence, 500 g ai/ha",100
same,"Plant response rating, Pigweed",[12]; [15],100
same,"Plant response rating, Pigweed",[12]; [16],100
CCn1c(-c2cccc(C)c2)ncc(C(=O)C2=C(O)C3CCC(C3)C2=O)c1=O (centres unmarked) [Compound 231],"Plant response rating, Flood, Ducksalad",[1],0
same,"Plant response rating, Ducksalad",[1]; [17],0
same,"Plant response rating, Flood, Barnyardgrass",[2],40
same,"Plant response rating, Barnyardgrass",[2]; [17],40
same,"Plant response rating, Flood, Sedge, Umbrella",[3],75
same,"Plant response rating, Sedge, Umbrella",[3]; [17],0
same,"Plant response rating, Flood, Rice",[4],0
same,"Plant response rating, Rice",[4]; [17],0
same,"Plant response rating, Barnyardgrass",[5]; [14],70
same,Barnyardgrass plant response rating,"[5]; Postemergence, 500 g ai/ha",90
same,"Plant response rating, Barnyardgrass",[5]; [15],0
same,"Plant response rating, Barnyardgrass",[5]; [16],60
same,"Plant response rating, Velvetleaf",[6]; [14],90
same,Velvetleaf plant response rating,"[6]; Postemergence, 500 g ai/ha",100
same,"Plant response rating, Velvetleaf",[6]; [15],50
same,"Plant response rating, Velvetleaf",[6]; [16],60
same,"Plant response rating, Corn",[7]; [14],0
same,Corn plant response rating,"[7]; Postemergence, 500 g ai/ha",40
same,"Plant response rating, Corn",[7]; [15],0
same,"Plant response rating, Corn",[7]; [16],20
same,"Plant response rating, Morningglory",[8]; [14],90
same,Morningglory plant response rating,"[8]; Postemergence, 500 g ai/ha",100
same,"Plant response rating, Morningglory",[8]; [15],10
same,"Plant response rating, Morningglory",[8]; [16],80
same,"Plant response rating, Wheat",[9]; [14],0
same,Wheat plant response rating,"[9]; Postemergence, 500 g ai/ha",0
same,"Plant response rating, Wheat",[9]; [15],0
same,"Plant response rating, Wheat",[9]; [16],0
same,"Plant response rating, Foxtail, Giant",[10]; [14],60
same,"Foxtail, Giant plant response rating","[10]; Postemergence, 500 g ai/ha",80
same,"Plant response rating, Foxtail, Giant",[10]; [15],0
same,"Plant response rating, Foxtail, Giant",[10]; [16],60
same,"Plant response rating, Crabgrass, Large",[11]; [14],50
same,"Crabgrass, Large plant response rating","[11]; Postemergence, 500 g ai/ha",70
same,"Plant response rating, Crabgrass, Large",[11]; [15],40
same,"Plant response rating, Crabgrass, Large",[11]; [16],90
same,"Plant response rating, Pigweed",[12]; [14],80
same,Pigweed plant response rating,"[12]; Postemergence, 500 g ai/ha",90
same,"Plant response rating, Pigweed",[12]; [15],50
same,"Plant response rating, Pigweed",[12]; [16],80

# Source: US8952024B2, “Herbicidal pyrimidone derivatives” (E I du Pont de Nemours and Company, priority 2009, dated 2015)
